Experimental data reported in patent US20250333424A1, “ANTIVIRAL COMPOUNDS” (Gilead Sciences, Inc., priority 2024, published 2025).

These compounds were tested on monocytic THP1 cells infected with HIV VSV-G pseudotyped GFP-NEF reporter virus (assay: cells). Conditions: Human immunodeficiency virus 1, THP-1, 24 h.
Format: cell-based

Compound	EC50
Cc1cc(/C=C/C#N)cc(C)c1Oc1nc(NC23CC(C#N)(C2)C3)nc2[nH]nc(O)c12 [Compound 110, (E)-3-((4-(4-(2-cyanovinyl)-2,6-dimethylphenoxy)-3-hydroxy-1H-pyrazolo[3,4-d]pyrimidin-6-yl)amino)bicyclo[1.1.1]pentane-1-carbonitrile]	> 1000 nM
Cc1cc(/C=C/C#N)cc(C)c1Oc1nc(NC23CC(C#N)(C2)C3)nc2c1[C@@H](C)N(c1cnn(C)c1)C2=O [Compound 313, (R,E)-3-((4-(4-(2-cyanovinyl)-2,6-dimethylphenoxy)-5-methyl-6-(1-methyl-1H-pyrazol-4-yl)-7-oxo-6,7-dihydro-5H-pyrrolo[3,4-d]pyrimidin-2-yl)amino)bicyclo[1.1.1]pentane-1-carbonitrile]	468 nM
Cc1cc(/C=C/C#N)cc(C)c1Oc1nc(NC23CC(C#N)(C2)C3)nc2nc3n(c12)C[C@H](F)CO3 (single isomer, unassigned) [Compound 192]	27.1 nM
Cc1cc(/C=C/C#N)cc(C)c1Oc1nc(NC23CC(C#N)(C2)C3)nc2nc(-c3cc[nH]n3)[nH]c12 [Compound 63, (E)-3-((6-(4-(2-cyanovinyl)-2,6-dimethylphenoxy)-8-(1H-pyrazol-3-yl)-7H-purin-2-yl)amino)bicyclo[1.1.1]pentane-1-carbonitrile]	62.8 nM
Cc1cc(/C=C/C#N)cc(C)c1Oc1nc(NC23CC(C#N)(C2)C3)nc2c1C(C)N(c1cn(C)nc1C)C2=O (stereo not shown) [Example 222, (E)-3-((4-(4-(2-cyanovinyl)-2,6-dimethylphenoxy)-6-(1,3-dimethyl-1H-pyrazol-4-yl)-5-methyl-7-oxo-6,7-dihydro-5H-pyrrolo[3,4-d]pyrimidin-2-yl)amino)bicyclo[1.1.1]pentane-1-carbonitrile]	70.7 nM
Cc1cc(/C=C/C#N)cc(C)c1Oc1nc(NC23CC(C#N)(C2)C3)nc2c1C1(C)OCCN1C2=O (stereo not shown) [Compound 273, (E)-3-((4-(4-(2-cyanovinyl)-2,6-dimethylphenoxy)-4b-methyl-9-oxo-4b,6,7,9-tetrahydrooxazolo[3′,2′:1,5]pyrrolo[3,4-d]pyrimidin-2-yl)amino)bicyclo[1.1.1]pentane-1-carbonitrile]	16 nM
Cc1cc(/C=C/C#N)cc(C)c1Oc1nc(NC23CC(C#N)(C2)C3)nc2nn3c(c12)CCCC3 [Example 256, (E)-3-((4-(4-(2-cyanovinyl)-2,6-dimethylphenoxy)-5,6,7,8-tetrahydropyrido[1′,2′:1,5]pyrazolo[3,4-d]pyrimidin-2-yl)amino)bicyclo[1.1.1]pentane-1-carbonitrile]	36.1 nM
Cc1cc(/C=C/C#N)cc(C)c1Oc1nc(NC23CC(C#N)(C2)C3)nc2c1[C@H](C)N(C1CC1)C2=O [Compound 181, (S,E)-3-((4-(4-(2-cyanovinyl)-2,6-dimethylphenoxy)-6-cyclopropyl-5-methyl-7-oxo-6,7-dihydro-5H-pyrrolo[3,4-d]pyrimidin-2-yl)amino)bicyclo[1.1.1]pentane-1-carbonitrile]	20.5 nM
Cc1cc(/C=C/C#N)cc(C)c1Oc1nc(NC23CC(C#N)(C2)C3)nc2c1C(O)(CF)N(C1CC1)C2=O (stereo not shown) [Compound 267, (E)-3-((4-(4-(2-cyanovinyl)-2,6-dimethylphenoxy)-6-cyclopropyl-5-(fluoromethyl)-5-hydroxy-7-oxo-6,7-dihydro-5H-pyrrolo[3,4-d]pyrimidin-2-yl)amino)bicyclo[1.1.1]pentane-1-carbonitrile]	80.3 nM
Cc1cc(/C=C/C#N)cc(C)c1Oc1nc(NC23CC(C#N)(C2)C3)nc2nn3ccccc3c12 [Compound 299, (E)-3-((4-(4-(2-cyanovinyl)-2,6-dimethylphenoxy)pyrido[1′,2′:1,5]pyrazolo[3,4-d]pyrimidin-2-yl)amino)bicyclo[1.1.1]pentane-1-carbonitrile]	40.1 nM
Cc1cc(/C=C/C#N)cc(C)c1Oc1nc(NC23CC(C#N)(C2)C3)nc2nn(C)nc12 [Compound 82, (E)-3-((7-(4-(2-cyanovinyl)-2,6-dimethylphenoxy)-2-methyl-2H-[1,2,3]triazolo[4,5-d]pyrimidin-5-yl)amino)bicyclo[1.1.1]pentane-1-carbonitrile]	79 nM
Cc1cc(/C=C/C#N)cc(C)c1Oc1nc(NC23CC(C#N)(C2)C3)nc2nn(C(F)F)nc12 (single isomer, unassigned) [Compound 22, (E)-3-((7-(4-(2-cyanovinyl)-2,6-dimethylphenoxy)-2-(difluoromethyl)-2H-[1,2,3]triazolo[4,5-d]pyrimidin-5-yl)amino)bicyclo[1.1.1]pentane-1-carbonitrile]	259 nM
Cc1cc(/C=C/C#N)cc(C)c1Oc1nc(NC23CC(C#N)(C2)C3)nc2c1C1OCCCN1C2=O (racemic) [Compound 278, (E)-3-((4-(4-(2-cyanovinyl)-2,6-dimethylphenoxy)-10-oxo-4b,7,8,10-tetrahydro-6H-pyrimido[5′,4′:3,4]pyrrolo[2,1-b][1,3]oxazin-2-yl)amino)bicyclo[1.1.1]pentane-1-carbonitrile]	30.8 nM
Cc1cc(/C=C/C#N)cc(C)c1Oc1nc(NC23CC(C#N)(C2)C3)nc2nc(C3CCC(F)(F)CC3)[nH]c12 [Compound 54, (E)-3-((6-(4-(2-cyanovinyl)-2,6-dimethylphenoxy)-8-(4,4-difluorocyclohexyl)-7H-purin-2-yl)amino)bicyclo[1.1.1]pentane-1-carbonitrile]	364 nM
CCOc1nn(CC)c2c(Oc3c(C)cc(/C=C/C#N)cc3C)nc(NC34CC(C#N)(C3)C4)nc12 [Compound 294, (E)-3-((7-(4-(2-cyanovinyl)-2,6-dimethylphenoxy)-3-ethoxy-1-ethyl-1H-pyrazolo[4,3-d]pyrimidin-5-yl)amino)bicyclo[11.1.1]pentane-1-carbonitrile]	23.3 nM
Cc1cc(/C=C/C#N)cc(C)c1Oc1nc(NC23CC(C#N)(C2)C3)nc2c1C(C)OC2 (stereo not shown) [Example 263, (E)-3-((4-(4-(2-cyanovinyl)-2,6-dimethylphenoxy)-5-methyl-5,7-dihydrofuro[3,4-d]pyrimidin-2-yl)amino)bicyclo[1.1.1]pentane-1-carbonitrile]	60.4 nM
Cc1cc(/C=C/C#N)cc(C)c1Oc1nc(NC23CC(C#N)(C2)C3)nc2nn(CC(F)(F)F)c(C)c12 [Compound 84, (E)-3-((4-(4-(2-cyanovinyl)-2,6-dimethylphenoxy)-3-methyl-2-(2,2,2-trifluoroethyl)-2H-pyrazolo[3,4-d]pyrimidin-6-yl)amino)bicyclo[1.1.1]pentane-1-carbonitrile]	370 nM
Cc1cc(/C=C/C#N)cc(C)c1Oc1nc(NC23CC(C#N)(C2)C3)nc2c1[C@H](C)NC2=O [Compound 138, 3-[[(5S)-4-[4-[(E)-2-cyanovinyl]-2,6-dimethyl-phenoxy]-5-methyl-7-oxo-5,6-dihydropyrrolo[3,4-d]pyrimidin-2-yl]amino]bicyclo[1.1.1]pentane-1-carbonitrile]	18.3 nM
Cc1cc(/C=C/C#N)cc(C)c1Oc1nc(NC23CC(C#N)(C2)C3)nc2c1c(C(F)F)nn2C [Compound 93, (E)-3-((4-(4-(2-cyanovinyl)-2,6-dimethylphenoxy)-3-(difluoromethyl)-1-methyl-1H-pyrazolo[3,4-d]pyrimidin-6-yl)amino)bicyclo[1.1.1]pentane-1-carbonitrile]	37.7 nM
Cc1cc(/C=C/C#N)cc(C)c1Oc1nc(NC23CC(C#N)(C2)C3)nc2c1CCC2(F)F [Compound 79, (E)-3-((4-(4-(2-cyanovinyl)-2,6-dimethylphenoxy)-7,7-difluoro-6,7-dihydro-5H-cyclopenta[d]pyrimidin-2-yl)amino)bicyclo[1.1.1]pentane-1-carbonitrile]	33.2 nM
Cc1cc(/C=C/C#N)cc(C)c1Oc1nc(NC23CC(C#N)(C2)C3)nc2nn(CC3CC3)cc12 [Compound 145, (E)-3-((4-(4-(2-cyanovinyl)-2,6-dimethylphenoxy)-2-(cyclopropylmethyl)-2H-pyrazolo[3,4-d]pyrimidin-6-yl)amino)bicyclo[1.1.1]pentane-1-carbonitrile]	89.1 nM
Cc1cc(/C=C/C#N)cc(C)c1C(=O)c1nc(NC23CC(C#N)(C2)C3)nc2nn(C)cc12 [Compound 275, (E)-3-((4-(4-(2-cyanovinyl)-2,6-dimethylbenzoyl)-2-methyl-2H-pyrazolo[3,4-d]pyrimidin-6-yl)amino)bicyclo[1.1.1]pentane-1-carbonitrile]	113 nM
C=C1NC(=O)c2nc(NC34CC(C#N)(C3)C4)nc(Oc3c(C)cc(/C=C/C#N)cc3C)c21 [Compound 139, (E)-3-((4-(4-(2-cyanovinyl)-2,6-dimethylphenoxy)-5-methylene-7-oxo-6,7-dihydro-5H-pyrrolo[3,4-d]pyrimidin-2-yl)amino)bicyclo[1.1.1]pentane-1-carbonitrile]	8.27 nM
Cc1cc(/C=C/C#N)cc(C)c1Oc1nc(NC23CC(C#N)(C2)C3)nc2[nH]cc(C)c12 [Compound 302, (E)-3-((4-(4-(2-cyanovinyl)-2,6-dimethylphenoxy)-5-methyl-7H-pyrrolo[2,3-d]pyrimidin-2-yl)amino)bicyclo[1.1.1]pentane-1-carbonitrile]	211 nM
Cc1cc(/C=C/C#N)cc(C)c1Oc1nc(NC23CC(C#N)(C2)C3)nc2c1nc(C)n2C(F)F [Compound 15, (E)-3-((6-(4-(2-cyanovinyl)-2,6-dimethylphenoxy)-9-(difluoromethyl)-8-methyl-9H-purin-2-yl)amino)bicyclo[1.1.1]pentane-1-carbonitrile]	109 nM
Cc1cc(/C=C/C#N)cc(C)c1Oc1nc(NC23CC(C#N)(C2)C3)nc2c1C1(C)O[C@H](C)CCN1C2=O (single isomer, unassigned) [Example 242]	36.4 nM
Cc1cc(/C=C/C#N)cc(C)c1Oc1nc(NC23CC(C#N)(C2)C3)nc2nn3c(c12)COCC3 [Example 259, (E)-3-((4-(4-(2-cyanovinyl)-2,6-dimethylphenoxy)-7,8-dihydro-5H-pyrimido[4′,5′:3,4]pyrazolo[5,1-c][1,4]oxazin-2-yl)amino)bicyclo[1.1.1]pentane-1-carbonitrile]	23.6 nM
Cc1cc(/C=C/C#N)cc(C)c1Oc1nc(NC23CC(C#N)(C2)C3)nc2c1C(C)NC2=O (stereo not shown) [Compound 136, (E)-3-((4-(4-(2-cyanovinyl)-2,6-dimethylphenoxy)-5-methyl-7-oxo-6,7-dihydro-5H-pyrrolo[3,4-d]pyrimidin-2-yl)amino)bicyclo[1.1.1]pentane-1-carbonitrile]	15 nM
